Series [1] has as its target T1, acetyl-CoA carboxylase (ACC) (Rattus norvegicus, UniProt P11497).
T1 construct: subjected to decapitation and bloodletting under ether anesthesia to quickly take out the liver; from tissue; host or cells: rat liver (male SD rat, fasted then fed a high-sucrose feed)
The series can be described thus: Measurement of ACC inhibition activity (14C-bicarbonate incorporation, ACC purified from rat liver). It is filed as biochemical. The settings on record: 5.6 × 10^−6 M compound; ACC purified from SD rat liver. The procedure:
After 2 days of fasting, a male SD rat of 12 weeks of age was allowed to feed on a high sucrose feed (67% sucrose, 17.1% casein, 9.8% cellulose, 5% sodium chloride, 0.1% choline chloride and 1% vitamins) for 2 days and then subjected to decapitation and bloodletting under ether anesthesia to quickly take out the liver. The thus obtained liver was sliced in an ice-cooled buffer A (225 mM mannitol, 75 mM sucrose, 10 mM Tris/HCl (pH 7.5), 0.05 mM EDTA-2Na, 5 mM potassium citrate, 2.5 mM MnCl2, 10 mg/l aprotinin, 10 mg/l leupeptin and 10 mg/l antitrypsin) and then, after removal of moisture, adjusted to 5 ml/g by adding the buffer A and homogenized for 4 minutes using Polytron homogenizer. This was centrifuged for 10 minutes at 1,000 g and then the resulting supernatant was subjected to 10 minutes of high speed centrifugation at 17,000 g.
Ammonium sulfate was added to the thus obtained supernatant to a final concentration of 35%, and the mixture was stirred for 45 minutes and then subjected to 10 minutes of high speed centrifugation at 17,000 g. The thus obtained precipitate was mixed with 100 ml of a buffer B (100 mM Tris/HCl (pH 7.5), 0.5 M NaCl, 1 mM EDTA-2Na, 0.1 mM DTT, 10% glycerol, 10 mg/l aprotinin, 10 mg/l leupeptin and 10 mg/l antitrypsin) and subjected to 20 minutes of ultracentrifugation at 40,000, and the resulting supernatant was dialyzed overnight against 150 volumes of a buffer C (100 mM Tris/HCl (pH 7.5), 0.5 M NaCl, 1 mM EDTA-2Na, 0.1 mM DTT and 10% glycerol) and then filtered through a 5 μm filter. The filtrate was applied to a biotin affinity column, washed with the buffer B and then eluted with the buffer B supplemented with 5 mM biotin.
2. Measurement of ACC Inhibition Activity
Each of the compounds produced in the Examples was dissolved in DMSO, and the solution was put into a glass vial, mixed with 250 μl of an ACC-containing reagent 1 (40 mM Tris/HCl (pH 7.5), 40 mM MgCl2, 40 mM sodium citrate, 2 mM DTT and 100 μg/ml fatty acid-free BSA),incubated at 37° C. for 30 minutes in a thermostatic chamber, cooled with ice, mixed with 250 μl of a reagent 2 (40 mM Tris/HCl (pH 7.5), 2 mM DTT, 8 mM ATP and 0.5 mM acetyl-CoA) containing 74 kBq of NaH^14CO3, again incubated at 37° C. for 10 minutes in a thermostatic chamber and then mixed with 0.1 ml of 1 N HCl to terminate the reaction. After complete removal of moisture in the glass vial under a reduced pressure, an emulsified scintillator (Cleasol I) was added to the glass vial, and the ^14C radioactivity was measured using a liquid scintillation counter. […]
Inhibition activity ratio (%)=(1−radioactivity when a drug to be tested is added/radioactivity when the drug to be rested is not added)×100

The test system of the next series is HepG2 cells. The series can be described thus: Measurement of intracellular fatty acid synthesis inhibition activity (FA biosynthesis from [14C]-glucose). It is filed as cell-based. The conditions noted are these: Homo sapiens, 3.0 × 10^−5 M compound, 3 hours culture with [14C]-glucose. The procedure:
Measurement of Intracellular Fatty Acid Synthesis Inhibition Activity (FA Biosynthesis Inhibition Activity)
Each of the compounds produced in the Examples was dissolved in DMSO and added to an experimental culture medium (DMEM; 0.05 μg/ml insulin, 0.1 mg/ml glucose and 18.5 kBq/ml [^14C]-glucose). The HepG2 cells were adjusted to a density of 0.75×10^6 cells/ml, inoculated into a 12 well plate in an amount of 1 ml/well and cultured overnight at 37° C. in an atmosphere of 5% CO2 (culture medium: DMEM, […] and 10% FBS), and the resulting cells were washed twice with PBS(−) buffer, mixed with the experimental culture medium in an amount of 0.5 ml/well and then cultured at 37° C. for 3 hours in an atmosphere of 5% CO2. After the culturing, the cells were washed twice with ice-cooled PBS(−) buffer and peeled off, and lipids were extracted from the resulting cells with a lipid extraction solution (chloroform:methanol=2:1). The extract was mixed with 2.5 ml of ethanol and 0.1 ml of 33% potassium hydroxide and incubated at 70° C. for 1 hour. Lipids were again extracted from the reaction mixture, and the extract was applied to a silica gel thin layer plate. This was developed with a developing solution (hexane:diethyl ether:acetic acid=80:20:1) and then the fatty acid iodine-coloring part was collected to measure its radioactivity using a liquid scintillation counter. The inhibition activity % (3.0×10^−5 M) of each compound was calculated.

Compound `O=C(Nc1ccccc1S(=O)(=O)NC(=O)c1ccccc1)c1cccc(OCc2ccccc2)c1` [Example 2, N-[2-(3-Benzyloxybenzamido)benzenesulfonyl]benzamide] registered a melting point of 201 to 202 °C. The compound further gave an inhibition at 5.6 µM in series [1] of 60.7%. Further, testing at 30 µM with HepG2 cells gave an inhibition of 43.8%.
Regarding `CCCCC/C=C\C/C=C\CCCCCCCC(=O)NS(=O)(=O)c1ccccc1NC(=O)c1cccc(OCc2ccccc2)c1` [Example 15, N-[2-(3-Benzyloxybenzamido)benzenesulfonyl]linolamide], in series [1], the inhibition at 5.6 µM was determined as 84.8%. The same compound showed an inhibition at 30 µM with HepG2 cells of 30.6%.
For `CCCCCC(=O)NS(=O)(=O)c1ccccc1NC(=O)c1cccc(OCc2ccc(C(F)(F)F)cc2)c1` [Example 33, N-[2-[3-(4-Trifluoromethylbenzyloxy)benzamido]benzenesulfonyl]hexanamide], the melting point fell in the range of 142 to 143 °C. In series [1], this compound had an inhibition at 5.6 µM of 52.3%. Also, the inhibition at 30 µM with HepG2 cells is 97.5%.
In turn, `CCCCCCCCCC(=O)NS(=O)(=O)c1ccccc1NC(=O)c1ccc([N+](=O)[O-])c(OCc2ccccc2)c1` [Example 16, N-[2-(3-Benzyloxy-4-nitrobenzamido)benzenesulfonyl]decanamide] yielded a melting point of 129 to 130 °C. This compound also had an inhibition at 5.6 µM in series [1] of 79.9%. In the series with HepG2 cells, the inhibition at 30 µM worked out at 94.3%.
On the same counts, the results for `CCCCCCCCCC(=O)NS(=O)(=O)c1ccccc1NC(=O)c1cccc(OCc2ccc(Cl)cc2)c1` [Example 19, N-[2-[3-(4-Chlorobenzyloxy)benzamido]benzenesulfonyl]decanamide] are 159 to 161 °C, 83.3% and 90.5%.
On the same counts, the results for `C/C=C/C=C/C(=O)NS(=O)(=O)c1ccccc1NC(=O)c1ccc(C#Cc2ccccc2)cc1` [Example 43, trans-N-[2-(4-Phenylethynylbenzamido)benzenesulfonyl]-2,4-hexadienamide] are 208 to 209 °C, 54.3% and 92.3%.
As for `CC(C)(C)c1ccc(COc2cccc(C(=O)Nc3ccccc3S(=O)(=O)NC(=O)/C=C/c3ccccc3)c2)cc1` [Example 13, N-[2-[3-(4-t-Butylbenzyloxy)benzamido]benzenesulfonyl]cinnamamide], the melting point is 110 to 111 °C. In addition, the inhibition at 5.6 µM in series [1] stood at 79.5%. Also, the inhibition at 30 µM in the series with HepG2 cells amounted to 38.1%.
On the same counts, the results for `CCCCCCCCCC(=O)NS(=O)(=O)c1ccccc1NC(=O)c1cccc(OCCCCCCC)c1` [Example 37, N-[2-(3-Heptyloxybenzamido]benzenesulfonyl]decanamide] are 172 to 174 °C, 83.6% and 64.3%.
For the compound `CCCCCCCCCC(=O)NS(=O)(=O)c1ccccc1NC(=O)c1cccc(OCc2ccc(C(C)(C)C)cc2)c1` [Example 31, N-[2-[3-(4-t-Butylbenzyloxy)benzamido]benzenesulfonyl]decanamide], the melting point was 132 to 133 °C. The same compound showed an inhibition at 5.6 µM in series [1] of 67.6%. For the same compound, in the series on HepG2 cells, testing at 30 µM gave an inhibition of 66.4%.
Turning to `CCCCCCCCCC(=O)NS(=O)(=O)c1ccccc1NC(=O)c1cccc(OCc2ccccc2)c1` [Example 9, N-[2-(3-Benzyloxybenzamido)benzenesulfonyl]decanamide], the melting point fell in the range of 85 to 86 °C. In series [1], this compound came in with an inhibition at 5.6 µM of 65%. In the series with HepG2 cells, this compound displayed an inhibition at 30 µM of 86.8%.
On the same counts, the results for `CCCCCCCCCC(=O)NS(=O)(=O)c1ccccc1NC(=O)c1cccc(OCc2ccc(OC)cc2)c1` [Example 25, N-[2-[3-(4-methoxybenzyloxy)benzamido]benzenesulfonyl]decanamide] are 148 to 149 °C, 81.6% and 92%.
For `CCCCCC(=O)NS(=O)(=O)c1ccccc1NC(=O)c1cccc(OCc2ccc(C(C)(C)C)cc2)c1` [Example 30, N-[2-[3-(4-t-Butylbenzyloxy)benzamido]benzenesulfonyl]hexanamide], the melting point is 163 to 164 °C. Moreover, the inhibition at 5.6 µM in series [1] stood at 53.2%. Besides, in the series on HepG2 cells, the inhibition at 30 µM came to 87.1%.
On the same counts, the results for `CCCCCCCCCC(=O)NS(=O)(=O)c1ccccc1NC(=O)c1cccc(OCc2ccc(C(F)(F)F)cc2)c1` [Example 34, N-[2-[3-(4-Trifluoromethylbenzyloxy)benzamido]benzenesulfonyl]decanamide] are 164 °C, 81.3% and 87.7%.
`CCCCCCCCCC(=O)NS(=O)(=O)c1ccccc1NC(=O)c1cccc(OCC2CCCCC2)c1` [Example 28, N-[2-(3-Cyclohexylmethoxybenzamido)benzenesulfonyl]decanamide] showed a melting point of 124 to 127 °C. The inhibition at 5.6 µM in series [1] was 89.4%. Further, the inhibition at 30 µM in the series with HepG2 cells worked out at 84.6%.
On the same counts, the results for `CCCCCCCCCC(=O)NS(=O)(=O)c1ccccc1NC(=O)c1ccc(C#Cc2ccccc2)cc1` [Example 40, N-[2-(4-Phenylethynylbenzamido)benzenesulfonyl]decanamide] are 155 to 156 °C, 76% and 57.4%.
As for `CCCCCCCCCC(=O)NS(=O)(=O)c1ccccc1NC(=O)c1cccc(OCc2ccc([N+](=O)[O-])cc2)c1` [Example 22, N-[2-[3-(4-Nitrobenzyloxy)benzamido]benzenesulfonyl]decananide], the melting point fell in the range of 145 to 148 °C. The compound further gave an inhibition at 5.6 µM in series [1] of 88.4%. In the series on HepG2 cells, this compound gave an inhibition at 30 µM of 95.2%.

The record behind these values is patent US20030162818A1, “Acylsulfonamide derivative” (AJINOMOTO CO. INC., priority 1997, published 2003).
